Results published in US12070454B1, “Anesthetic nerve block and method” (PFOF LLC, priority 2022, dated 2024).
Where “and” joins values, the source holds several entries; their conditions need not be identical. Identical values can stand only once.

How the values were obtained:
peripheral nerve [1] = format: in vivo, human
Excerpt: The mass of ALALA drug precipitated around the peripheral nerve or infiltrated tissue causes the intraneural metabolic mechanism transforming unionized to ionized ALALA drug to get overwhelmed. Thus, the normal transformation to ionized ALALA drug gets delayed to the point it takes 5 days or longer for all the ALALA drug to be metabolized and the block to wear off.

axolemma or node = test system: axolemma or node
Protocol: It is this small amount of bupivacaine within the axolemma/node that results, primarily, in continuing neural blockade for periods of 120 hours or more.

peripheral nerve [2] = conditions: cited from earlier work; for extension of standard peripheral nerve block: dexmedetomidine and clonidine, along with corticosteroids; for duration of peripheral nerve block, local anesthetic alone: no adjuvant or steroid; for life of peripheral nerve blocks and tissue infiltrates with adjuvants: with epinephrine, corticosteroids, α2-agonists
[3] = cited from earlier work; for pH at which precipitates began to form: combined with NaOH
target nerve = assay: ALALA-carbonate nerve block by injection of Solution 1 and Solution 2; format: in vivo, human; conditions: ALALA-carbonate precipitate in and around the nerve
Excerpt: As shown in FIGS. 17-23, the establishment of a 5-day peripheral nerve block involves the injection of two separate and sequential solutions to form the ALALA-compound precipitate and crystals in vivo around the nerves for specific nerve blocks. These solutions form the ALALA-compound precipitates and crystals. As the two solutions must be kept separate until injection over the specific nerve is accomplished, the solutions may then react to form the ALALA-compound precipitate and crystals in vivo. This separation of solutions by two different means: • 1. The sequential injection of two separate solutions through a single needle (FIGS. 17-19 and 22). • 2. The simultaneous injection of both solutions through a bifurcated needle where mixing occurs only at the needle tip(s) opposite the target nerve (FIGS. 20 and 21). These alkaline solutions are: • 1. […] Epinephrine 86 is present at a concentration of ˜3 mcg/ml, primarily as a standard vascular marker producing mild tachycardia if leakage into the vascular system occurs. When Solution 1 is given, a pulse-oximeter or EKG rhythm strip must be run to confirm no tachycardia for 2 minutes to ensure Solution 1 has no leakage into the vascular system with a resulting tachycardia greater than 15% above baseline pulse. […] Solution 2 is injected only if no increase impulse rate greater than 15% above baseline is determined within 2 minutes. • 3. […]

[4] = format: physicochemical; conditions: for drug mass remaining in solution: 0.375 %; for drug mass precipitated: equal volumes of 8.4% NaHCO3 and 0.75% anesthetic solution, in vitro
Excerpt: Because of their elevated pKa's, ALALA drugs will form a crystalline precipitate 82 in an alkaline environment, both intra-axonally and extra-axonally (at the nodes of Ranvier 20 in A-delta fibers and generally around the axon in C-fibers). […] It is anticipated levo-bupivacaine will react similarly to levo-ropivacaine at 96.5% conversion to precipitate and crystallization when this drug becomes available.
NaHCO3 in Solution 1, when mixed with bupivacaine, levo-bupivacaine, or ropivacaine of Solution 2, will cause these drugs to immediately precipitate into crystals in this alkaline solution.
As discovered in our laboratory, 8.4% NaHCO3, when combined in vitro with bupivacaine or ropivacaine, results in precipitates of 93.5% and 96.5% respectively of the parent ALALA drug. […] Controlling the pH of the final combination of all these drugs and bases more efficiently controls the percentage of ALALA converted to precipitate and crystals and thereby the duration of the resulting nerve block.

[5] = Test-tube combination of levobupivacaine with NaHCO3 versus molar prediction; format: physicochemical
Excerpt: In a test-tube with one mole of ropivacaine or levobupivacaine reacting with one mole of NaHCO3, a much higher percentage of ropivacaine or levobupivacaine is converted to the ALALA-bicarbonate precipitate than with racemic bupivacaine. Testing with levobupivacaine with NaHCO3 it was established that, levobupivacaine combines with NaHCO3 much more readily than molar predictions indicated. Where molar quantities predicted a 57.7% combination, an 83.9% combination occurred. Where another molar quantity predicted an 86.5% combination, a 94.0% combining of levobupivacaine and NaHCO3 occurred. Thus levo-enantiomers of the ALALA drugs are the preferred forms to be used to create these ALALA-bicarbonate precipitates.

[6] = Precipitation of local anesthetics with increasing pH (NaOH) or corticosteroids; format: physicochemical; conditions: alkaline solution
[7] = humans; cited from earlier work
[8] = cited from earlier work

drug mass remaining in solution [4] | drug mass precipitated [4] | SMILES | extension of standard peripheral nerve block (peripheral nerve [2]) | duration of peripheral nerve block, local anesthetic alone (peripheral nerve [2]) | life of peripheral nerve blocks and tissue infiltrates with adjuvants (peripheral nerve [2]) | pH at which precipitates began to form [3] | also measured
7.47% | 93.53% and 93.5% and 92.53% | CCCCN1CCCCC1C(=O)Nc1c(C)cccc1C (racemic) [bupivacaine, (RS)-1-butyl-N-(2,6-dimethylphenyl)piperidine-2-carboxamide] | ~50% | ~12 h and 16 h | ~24 h | 7.7 pH | duration of block achieved (peripheral nerve [1]; 225 mg bupivacaine dose, single volunteer): 5 days; depot as percentage of the dose injected (peripheral nerve [1]; human, in vivo): 7.163%; fraction penetrating the axolemma or node before precipitation (axolemma or node): approximately 11.9%; duration of neural blockade / analgesia (target nerve): ≥ 120 h
 |  | CC1(C)O[C@@H]2C[C@H]3[C@@H]4CCC5=CC(=O)C=C[C@]5(C)[C@@]4(F)[C@@H](O)C[C@]3(C)[C@]2(C(=O)CO)O1 [Triamcinolone] |  |  |  |  | precipitate effect when combined with the ALALA drugs ([3]; Hwang et al.): no precipitate-effects
 |  | CCCCN1CCCC[C@H]1C(=O)Nc1c(C)cccc1C [levobupivacaine, (S)-1-butyl-N-(2,6-dimethylphenyl)-2-piperidinecarboxamide] |  | ~12 h | ~24 h |  | combining of levobupivacaine and NaHCO3 that occurred ([5]; where another molar quantity predicted an 86.5% combination): 94.0%; combination of levobupivacaine and NaHCO3 that occurred ([5]; where molar quantities predicted a 57.7% combination): 83.9%
 |  | CCN(CC)CC(=O)Nc1c(C)cccc1C [lidocaine] |  |  |  |  | pH at which lidocaine precipitates [6]: ~11.5 pH
3.50% | 96.5% | CCCN1CCCC[C@H]1C(=O)Nc1c(C)cccc1C [ropivacaine, (S)-1-propyl-N-(2,6-dimethylphenyl)piperidine-2-carboxamide] | ~50% | ~12 h and 16 h | ~24 h | 6.9 pH | 
 |  | CCCCNc1ccc(C(=O)OCCN(C)C)cc1 [tetracaine] |  |  |  |  | dose at which anaphylactic reactions are known [7]: ≤ 10 mg; pKa relative to bupivacaine [8]: higher than bupivacaine
